Patent US11866466B2, “Tumor homing and cell penetrating peptide-immuno-oncology agent complexes and methods of use thereof” (BLAZE BIOSCIENCE, INC., priority 2017, dated 2024)
{ppp} = triphosphate on the strand's 5' end

How the values were obtained:
[1] = tested on: IFN pathway (JAK/STAT/ISGF3 pathway and/or IRF3 pathway) in SEAP reporter cells; RIG-I; test: B16-Blue IFN-alpha/beta SEAP reporter cell assay; type: cell-based, murine; details: for luminescence signal (RLU) from activating the IFN pathway: 12 pmol or 120 pmol, 24, 48, or 72 hours, no transfection reagent (FIG. 19); for RLU signal in the presence of transfection reagent: with Lipofectamine transfection reagent (FIG. 22)
[2] = tested on: A20 lymphoma cells; test: Intratumoral microinjection in A20 lymphoma tumors, CC3 immunostaining and radial plot analysis; type: in vivo, mouse; details: for CC3 staining (apoptosis) at injection site: 24 hours after administration, complex at 1 μg and 2 μg doses (FIG. 81)
[3] = tested on: A20 lymphoma cells; test: Intratumoral microinjection in A20 tumors, IFNb mRNA in situ hybridization (RNAscope); type: in vivo, mouse; details: 4 hours after administration; complex at 1 ug or 2 ug (FIG. 84, FIG. 85)
[4] = tested on: STING; details: from Lioux et al.; cited from earlier work
[5] = tested on: Mo7e cells; test: Mo7e proliferation assay (PrestoBlue); type: cell-based, human; details: 3 days incubation (FIG. 29)
Protocol: (§1) This example describes in vitro proliferation of cells treated with peptide-IL-15 agent complexes using cytokine dependent CTLL2 (mouse cytotoxic T lymphocyte cell line), Mo7e (human acute megakaryoblastic leukemia cell line) and human primary CD8+ T cells. All assays were performed in the 96 well plate format in clear bottom black walled tissue culture plates. Peptide-I/O complexes comprising SEQ ID NO: 568, peptide-I/O complexes comprising an IL-15 agent, and peptide-I/O complexes comprising a His-tagged RLI control proteins (SEQ ID NO: 1342) were diluted in culture media without cytokine supplement. […]
CTLL2 and Mo7e cells were maintained as cell cultures in media containing either IL-2 (CTLL2) or IL-3 (Mo7e). Viability and cell concentration were analyzed using a Viacell cell counter. […]
After the end of the incubation period, PrestoBlue live cell assay reagent (Invitrogen) was added to each well (10 μL per 100 μL well). […] Fluorescence was quantified using an Envision (Perkin Elmer 2104) plate reader. Data was graphed and analyzed in Excel, GraphPad Prism 7, or the AAT Bioquest graphing and EC50 calculator https://www.aatbio.com/tools/ec50-calculator. […]
After the end of the incubation period, PrestoBlue live cell assay reagent (Invitrogen) was added to each well per manufacture instructions. […] PrestoBlue fluorescence was quantified using an Envision (Perkin Elmer 2104) plate reader.

[6] = tested on: CD8+ primary human T cells; test: CD8+ primary human T cell proliferation assay (PrestoBlue); type: cell-based; details: FIG. 30A
Protocol: as §1
(§2) CD8+ selected primary human T-cells were received as frozen cells and stored in the LN2 vapor phase until used. […] 15 mL of room temperature 10% FBS RPMI media was added to the cell suspension; the cells were then pelleted, resuspended in 10% FBS media, and counted using the Viacell. […]
(§3) After the end of the incubation period, PrestoBlue live cell assay reagent (Invitrogen) was added to each well (10 μL per 100 μL well). […] Fluorescence was quantified using an Envision (Perkin Elmer 2104) plate reader. Data was graphed and analyzed in Excel, GraphPad Prism 7, or the AAT Bioquest graphing and EC50 calculator https://www.aatbio.com/tools/ec50-calculator.

[7] = tested on: PHA induced T cell blasts; test: PHA induced T cell blast proliferation assay (PrestoBlue); type: cell-based, human; details: FIG. 30B; same CD8+ T cell donor
Protocol: as §1, §2, §3

[8] = Tolerability of intraperitoneal peptide-IL-15 agent complexes in CT26 tumor mice; type: in vivo, mouse; details: 1-12 ug in 100 μl, 4 days a week intraperitoneally, 7 doses
Protocol: This example describes peptide-IL-15 agent complex accumulation in tumors. Peptide-IL-15 agent complexes such as this in example 18 were expressed and purified. Mice were dosed with 0.2 million CT26 cells, which were allowed to grow for 5 days, at which time tumors were palpable. Mice were dosed with 1-12 ug of SEQ ID NO: 1317, SEQ ID NO: 1321, an RLI, or no agent in 100 μl 4 days a week intraperitoneally. […] After 7 doses, the animals were sacrificed and the tumor tissue was harvested and fixed.

[9] = tested on: CT26 colon carcinoma cells; test: Intratumoral microinjection in CT26 flank tumors, cleaved caspase 3 (CC3) immunostaining; type: in vivo, mouse

## 5′ppp hpRNA: I/O comprising a dsRNA SEQ ID NO: 1371 with a 5′ppp, which forms a hairpin structure (GCAUGCGACCUCUGUUUGAUCAAACAGAGGUCGCAUGC; RNA, 5' {ppp}, backbone and methylation of C not given here; hairpin RNA)
[1]; 16.2 pmole, 24 hours, with Lipofectamine (FIG. 80)
  luminescence signal (RLUs) with transfection reagent: High signaling
[2]; 24 hour timepoint, 7-8 tumors per test article, complex at 1 μg and 2 μg (FIG. 82)
  fraction of cells positive for CC3 staining versus distance from injection site (radial plot): very little increase in CC3 positive cells
[2]
  CC3 staining (apoptosis) at injection site: do not show similarly strong induction of apoptosis
[3]
  IFNb mRNA staining at injection site: significant IFNb mRNA staining

## Nc1ncnc2c1ncn2C1C[C@@H]2OP(=O)(O)OCC3OC(n4cnc5c(=O)[nH]cnc54)C[C@@H]3OP(=O)(O)OCC2O1 (stereo partly shown) [Analog 51, c-(dAMP-dIMP)]
[4]
  activity relative to 2′,3′-cGAMP: equivalent in activity to 2′,3′-cGAMP

## SEQ ID NO: 1342: His-tagged RLI protein comprising SEQ ID NO: 1169, SEQ ID NO: 1176 (IL-15Ra sushi+) and SEQ ID NO: 1177 (IL-15)
[5]
  cytokine activity, proliferation: stimulate Mo7e cells
[6]
  cytokine activity, proliferation: stimulate human CD8+ T cells
[7]
  cytokine activity, proliferation: stimulate human CD8+ T cells
[8]
  tolerability of treatments: well tolerated

## CCN(CC)CCCC(C)Nc1ccnc2cc(Cl)ccc12 (stereo not shown) [chloroquine]
[9]; 4 hours post-treatment (FIG. 16)
  CC3 staining (apoptosis) at injection site: did not have a significant region of CC3 staining
[9]; 24 h, other animals tested
  CC3 staining (apoptosis) at injection site: One animal showed CC3 staining

## Nc1ncnc2c1ncn2C1OC2COP(=O)(O)OC3CC(n4cnc5c(=O)[nH]cnc54)OC3COP(=O)(O)OC2C1F (stereo not shown) [Analog 54, c-(2′FdAMP-dIMP)]
[4]
  activity relative to 2′,3′-cGAMP: equivalent in activity to 2′,3′-cGAMP

## Nc1ncnc2c1ncn2C1OC2COP(=O)(O)O[C@@H]3C(COP(=O)(O)O[C@H]2[C@H]1F)OC(n1cnc2c(=O)[nH]cnc21)[C@@H]3F (stereo partly shown) [Analog 52, c-(2′FdAMP-2′FdIMP)]
[4]
  activity relative to 2′,3′-cGAMP: more potent than 2′,3′-cGAMP

## 3′,2′c-AIMP [Analog 23]
[4]
  activity relative to 2′,3′-cGAMP: equivalent in activity to 2′,3′-cGAMP

## cAIM(PS)2 [Analog 13]
[4]
  activity relative to 2′,3′-cGAMP: more potent than 2′,3′-cGAMP

## dsRNA: SEQ ID NO: 1424 and SEQ ID NO: 1425 (no terminal phosphates on either strand) complexed together (chain 1 GCAUGCGACCUCUGUUUGA; chain 2 UCAAACAGAGGUCGCAUGC; RNA, backbone and methylation of C not given here; further chemistry not fully specified)
[1]
  luminescence signal (RLU) from activating the IFN pathway: Very little signal
  RLU signal in the presence of transfection reagent: much lower signaling

## c-[2′FdAMP(S)-2′FdIMP(S)] [Analog 53]
[4]
  activity relative to 2′,3′-cGAMP: more potent than 2′,3′-cGAMP

## Cc1ccc2c(=O)c3cccc(CC(=O)O)c3oc2c1C [DMXAA]
[2]
  CC3 staining (apoptosis) at injection site: do not show similarly strong induction of apoptosis

## Nc1ncnc2c1ncn2C1OC2COP(=O)(O)OC3C(COP(=O)(O)OC2C1O)OC(n1cnc2c(=O)[nH]cnc21)C3O (stereo not shown) [Analog 9, 3′,3′c-AIMP]
[4]
  activity relative to 2′,3′-cGAMP: equivalent in activity to 2′,3′-cGAMP

## Nc1ncnc2c1ncn2C1OC2COP(=O)(S)OC3CC(n4cnc5c(=O)[nH]cnc54)OC3COP(=O)(S)OC2C1F (stereo not shown) [Analog 56, c-[2′FdAM(PS)-dIM(PS)]]
[4]
  activity relative to 2′,3′-cGAMP: more potent than 2′,3′-cGAMP

## Nc1ncnc2c1ncn2C1C[C@@H]2OP(=O)(O)OCC3OC(n4cnc5c(=O)[nH]cnc54)[C@H](F)[C@@H]3OP(=O)(O)OCC2O1 (stereo partly shown) [Analog 55, c-(dAMP-2′FdIMP)]
[4]
  activity relative to 2′,3′-cGAMP: equivalent in activity to 2′,3′-cGAMP

## Nc1ncnc2c1ncn2C1OC2COP(=O)(O)O[C@@H]3C(COP(=O)(O)O[C@@H]1[C@@H]2O)OC(n1cnc2c(=O)[nH]cnc21)[C@@H]3O (stereo partly shown) [Analog 10, 2′,3′c-AIMP]
[4]
  activity relative to 2′,3′-cGAMP: equivalent in activity to 2′,3′-cGAMP

## 5′ppp dsRNA: SEQ ID NO: 1424 (with triphosphate on the 5′ end) and SEQ ID NO: 1425 (no terminal phosphates) complexed together (chain 1 GCAUGCGACCUCUGUUUGA; chain 2 UCAAACAGAGGUCGCAUGC; chain 1: RNA, 5' {ppp}, backbone and methylation of C not given here; chain 2: RNA, backbone and methylation of C not given here)
[1]
  luminescence signal (RLU) from activating the IFN pathway: Very little signal
  RLU signal in the presence of transfection reagent: high signaling
